# The source made the active and inactive calls. No cut-off for these calls is given here.
# Assays:
# Mus musculus [1] = test: In vivo inhibition of JNK phosphorylation in CCL4-induced C57BL/6J mouse hepatic fibrosis model at 15 to 30 mg/kg, po administered via gavage for 4 weeks starting from 5th week of CCL4 stimulation by Western blot analysis; format: functional, organism-based; settings: dose 15-30 mg/kg
# RAW264.7 [2] = test: Inhibition of LPS-induced NFkappaB transcriptional activity in mouse RAW264.7 cells at 10 uM preincubated for 2 hrs followed by LPS stimulation and measured after 6 hrs by luciferase reporter gene assay relative to control; format: cell-based; settings: time 8.0 hrs
# Mus musculus [3] = test: In vivo inhibition of AKT phosphorylation in CCL4-induced C57BL/6J mouse hepatic fibrosis model at 15 to 30 mg/kg, po administered via gavage for 4 weeks starting from 5th week of CCL4 stimulation by Western blot analysis; format: functional, organism-based; settings: dose 15-30 mg/kg
# Mus musculus [4] = test: Antifibrotic activity against BDL-induced C57BL/6J mouse hepatic fibrosis model assessed as reduction in alphaSMA expression in liver at 15 to 30 mg/kg, po administered via gavage starting from 3 days post-BDL by Western blot analysis; format: functional, organism-based; settings: dose 15-30 mg/kg
# LX-2 [5] = test: Inhibition of FBS-induced cell migration in human LX-2 cells assessed as reduction in number of migrated cells measured after 24 hrs by crystal violet staining based transwell assay; format: functional; settings: dose 5-20 µM
# Mus musculus [6] = test: Antifibrotic activity against BDL-induced C57BL/6J mouse hepatic fibrosis model assessed as reduction in collagen deposition in liver at 15 to 30 mg/kg, po administered via gavage starting from 3 days post-BDL by Sirius Red and Masson staining based assay; format: functional, organism-based; settings: dose 15-30 mg/kg
# Mus musculus [7] = test: Antifibrotic activity against CCL4-induced C57BL/6J mouse hepatic fibrosis model assessed as reduction in alphaSMA expression in liver at 15 to 30 mg/kg, po administered via gavage for 4 weeks starting from 5th week of CCL4 stimulation by qRT-PCR analysis; format: functional, organism-based; settings: dose 15-30 mg/kg
# LX-2 [8] = test: Inhibition of TGFbeta1-induced AKT phosphorylation in human LX-2 cells preincubated for 2 hrs followed by […] stimulation and measured after 2 hrs by Western blot analysis; format: cell-based; settings: dose 5-20 µM, time 4.0 hrs
# [9] = molecular target: Mothers against decapentaplegic homolog 2 (Homo sapiens) (UniProt Q15796); test: Inhibition of TGFbeta1-induced Smad2 phosphorylation in human LX-2 cells preincubated for 2 hrs followed by […] stimulation and measured after 2 hrs by Western blot analysis; format: cell-based; settings: dose 5-20 µM, time 4.0 hrs
# Mus musculus [10] = test: (§1) Antifibrotic activity against CCL4-induced C57BL/6J mouse hepatic fibrosis model assessed as reduction in necrosis of hepatocytes at 15 to 30 mg/kg, po administered via gavage for 4 weeks starting from 5th week of CCL4 stimulation by H and E staining based histopathological analysis; format: functional, organism-based; settings: dose 15-30 mg/kg
# RAW264.7 [11] = test: Antiinflammatory activity in mouse RAW264.7 cells assessed as inhibition of LPS-induced collagen 1 mRNA expression at 5 to 20 uM preincubated for 2 hrs followed by LPS stimulation and measured after 48 hrs by qRT-PCR analysis; format: functional, cell-based; settings: dose 5-20 µM, time 50.0 hrs
# [12] = molecular target: Mothers against decapentaplegic homolog 3 (Homo sapiens) (UniProt P84022); test: Inhibition of TGFbeta1-induced Smad3 phosphorylation in human LX-2 cells preincubated for 2 hrs followed by […] stimulation and measured after 2 hrs by Western blot analysis; format: cell-based; settings: dose 5-20 µM, time 4.0 hrs
# RAW264.7 [13] = test: Antiinflammatory activity in mouse RAW264.7 cells assessed as inhibition of LPS-induced alpha-SMA expression at 5 to 20 uM preincubated for 2 hrs followed by LPS stimulation and measured after 48 hrs by Western blot analysis; format: functional, cell-based; settings: dose 5-20 µM, time 50.0 hrs
# Mus musculus [14] = test: Antifibrotic activity against BDL-induced C57BL/6J mouse hepatic fibrosis model assessed as improvement in histological changes at 15 to 30 mg/kg, po administered via gavage starting from 3 days post-BDL by H and E staining based assay; format: functional, organism-based; settings: dose 15-30 mg/kg
# Mus musculus [15] = test: as §1, with “infiltration” for “necrosis”, “inflammatory cells in liver” for “hepatocytes”; format: functional, organism-based; settings: dose 15-30 mg/kg
# Mus musculus [16] = test: In vivo inhibition of ERK1/2 phosphorylation in BDL-induced C57BL/6J mouse hepatic fibrosis model at 15 to 30 mg/kg, po administered via gavage starting from 3 days post-BDL by Western blot analysis; format: functional, organism-based; settings: dose 15-30 mg/kg
# Mus musculus [17] = test: Antifibrotic activity against CCL4-induced C57BL/6J mouse hepatic fibrosis model assessed as reduction in collagen 1 expression in liver at 15 to 30 mg/kg, po administered via gavage for 4 weeks starting from 5th week of CCL4 stimulation by qRT-PCR analysis; format: functional, organism-based; settings: dose 15-30 mg/kg
# Mus musculus [18] = test: Antifibrotic activity against CCL4-induced C57BL/6J mouse hepatic fibrosis model assessed as reduction in collagen deposition in liver at 15 to 30 mg/kg, po administered via gavage for 4 weeks starting from 5th week of CCL4 stimulation by Sirius red and Masson's trichrome staining based assay; format: functional, organism-based; settings: dose 15-30 mg/kg
# Mus musculus [19] = test: Antifibrotic activity against BDL-induced C57BL/6J mouse hepatic fibrosis model assessed as improvement in histological changes at 15 to 30 mg/kg, po administered via gavage starting from 3 days post-BDL; format: functional, organism-based; settings: dose 15-30 mg/kg
# Mus musculus [20] = test: In vivo inhibition of p65 phosphorylation in CCL4-induced C57BL/6J mouse hepatic fibrosis model at 15 to 30 mg/kg, po administered via gavage for 4 weeks starting from 5th week of CCL4 stimulation by Western blot analysis; format: functional, organism-based; settings: dose 15-30 mg/kg
# [21] = molecular target: Nuclear factor NF-kappa-B complex (Homo sapiens) (UniProt Q00653+P19838+Q04206); test: Inhibition of LPS-induced NFkappaB activation in human LX-2 cells assessed as reduction in p65 phosphorylation preincubated for 2 hrs followed by LPS stimulation and measured after 2 hrs by Western blot analysis; format: cell-based; settings: dose 5-20 µM, time 4.0 hrs
# RAW264.7 [22] = test: Antiinflammatory activity in mouse RAW264.7 cells assessed as inhibition of TGFbeta1-induced collagen 1 expression at 5 to 20 uM preincubated for 2 hrs […] and measured after 48 hrs by Western blot analysis; format: functional, cell-based; settings: dose 5-20 µM, time 50.0 hrs
# RAW264.7 [23] = test: Antiinflammatory activity in mouse RAW264.7 cells assessed as inhibition of LPS-induced alpha-SMA mRNA expression at 5 to 20 uM preincubated for 2 hrs followed by LPS stimulation and measured after 48 hrs by qRT-PCR analysis; format: functional, cell-based; settings: dose 5-20 µM, time 50.0 hrs
# Mus musculus [24] = test: Antifibrotic activity against BDL-induced C57BL/6J mouse hepatic fibrosis model assessed as reduction in collagen 1 expression in liver at 15 to 30 mg/kg, po administered via gavage starting from 3 days post-BDL by Western blot analysis; format: functional, organism-based; settings: dose 15-30 mg/kg
# Mus musculus [25] = test: Antifibrotic activity against CCL4-induced C57BL/6J mouse hepatic fibrosis model assessed as reduction in alphaSMA expression in liver at 15 to 30 mg/kg, po administered via gavage for 4 weeks starting from 5th week of CCL4 stimulation by immunohistochemical staining based assay; format: functional, organism-based; settings: dose 15-30 mg/kg
# Mus musculus [26] = test: In vivo inhibition of p65 phosphorylation in BDL-induced C57BL/6J mouse hepatic fibrosis model at 15 to 30 mg/kg, po administered via gavage starting from 3 days post-BDL by Western blot analysis; format: functional, organism-based; settings: dose 15-30 mg/kg
# Mus musculus [27] = test: In vivo inhibition of Smad2 phosphorylation in CCL4-induced C57BL/6J mouse hepatic fibrosis model at 15 to 30 mg/kg, po administered via gavage for 4 weeks starting from 5th week of CCL4 stimulation by Western blot analysis; format: functional, organism-based; settings: dose 15-30 mg/kg
# Sequence of Nuclear factor NF-kappa-B complex (Homo sapiens) (P19838 whole entry, looked up): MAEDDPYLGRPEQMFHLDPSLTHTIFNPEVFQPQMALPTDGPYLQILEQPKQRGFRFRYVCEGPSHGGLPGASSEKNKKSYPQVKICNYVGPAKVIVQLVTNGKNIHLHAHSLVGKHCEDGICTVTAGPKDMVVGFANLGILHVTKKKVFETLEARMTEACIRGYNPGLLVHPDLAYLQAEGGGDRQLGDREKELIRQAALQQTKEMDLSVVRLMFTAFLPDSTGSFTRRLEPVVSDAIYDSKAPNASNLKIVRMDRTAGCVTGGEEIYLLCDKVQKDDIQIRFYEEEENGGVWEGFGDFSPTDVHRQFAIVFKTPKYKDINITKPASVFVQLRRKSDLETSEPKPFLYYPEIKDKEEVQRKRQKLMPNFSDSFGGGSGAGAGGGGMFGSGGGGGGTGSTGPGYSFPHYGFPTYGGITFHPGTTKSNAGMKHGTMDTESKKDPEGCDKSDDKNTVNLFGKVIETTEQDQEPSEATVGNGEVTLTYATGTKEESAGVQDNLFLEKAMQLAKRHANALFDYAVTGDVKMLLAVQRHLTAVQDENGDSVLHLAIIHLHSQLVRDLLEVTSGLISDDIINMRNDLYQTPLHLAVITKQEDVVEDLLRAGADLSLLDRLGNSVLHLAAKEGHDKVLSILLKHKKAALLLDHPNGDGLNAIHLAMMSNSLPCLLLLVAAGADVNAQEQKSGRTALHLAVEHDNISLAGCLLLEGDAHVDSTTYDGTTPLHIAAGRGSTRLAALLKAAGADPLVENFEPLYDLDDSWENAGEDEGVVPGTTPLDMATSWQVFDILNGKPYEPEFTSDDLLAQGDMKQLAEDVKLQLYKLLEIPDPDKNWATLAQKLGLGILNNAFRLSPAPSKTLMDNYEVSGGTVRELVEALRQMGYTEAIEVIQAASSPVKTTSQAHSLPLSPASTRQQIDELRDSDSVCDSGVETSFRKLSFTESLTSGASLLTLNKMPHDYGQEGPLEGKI
# Sequence of Nuclear factor NF-kappa-B complex (Homo sapiens) (Q00653 whole entry, looked up): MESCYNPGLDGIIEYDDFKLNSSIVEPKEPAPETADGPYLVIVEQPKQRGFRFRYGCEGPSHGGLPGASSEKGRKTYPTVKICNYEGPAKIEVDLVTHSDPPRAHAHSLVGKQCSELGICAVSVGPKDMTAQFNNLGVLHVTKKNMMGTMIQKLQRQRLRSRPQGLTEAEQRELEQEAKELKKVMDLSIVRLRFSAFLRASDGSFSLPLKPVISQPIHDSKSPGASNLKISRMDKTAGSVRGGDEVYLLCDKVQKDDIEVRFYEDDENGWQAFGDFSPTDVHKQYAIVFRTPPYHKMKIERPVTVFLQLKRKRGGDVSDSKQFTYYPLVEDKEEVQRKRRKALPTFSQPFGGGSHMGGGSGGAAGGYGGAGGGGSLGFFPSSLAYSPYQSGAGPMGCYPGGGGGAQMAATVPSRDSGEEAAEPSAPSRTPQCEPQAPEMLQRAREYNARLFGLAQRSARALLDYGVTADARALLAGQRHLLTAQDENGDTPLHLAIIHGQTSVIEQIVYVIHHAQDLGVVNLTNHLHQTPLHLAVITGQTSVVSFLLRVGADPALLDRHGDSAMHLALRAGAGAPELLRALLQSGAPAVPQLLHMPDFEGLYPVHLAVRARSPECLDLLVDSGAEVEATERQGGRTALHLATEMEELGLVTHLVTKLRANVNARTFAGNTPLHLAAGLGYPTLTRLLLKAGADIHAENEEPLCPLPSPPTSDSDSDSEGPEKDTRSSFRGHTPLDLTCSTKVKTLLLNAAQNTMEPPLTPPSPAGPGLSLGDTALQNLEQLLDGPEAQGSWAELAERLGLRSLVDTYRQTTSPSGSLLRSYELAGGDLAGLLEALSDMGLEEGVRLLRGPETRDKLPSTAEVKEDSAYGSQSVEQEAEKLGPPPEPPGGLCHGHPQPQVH
# Sequence of Nuclear factor NF-kappa-B complex (Homo sapiens) (Q04206 whole entry, looked up): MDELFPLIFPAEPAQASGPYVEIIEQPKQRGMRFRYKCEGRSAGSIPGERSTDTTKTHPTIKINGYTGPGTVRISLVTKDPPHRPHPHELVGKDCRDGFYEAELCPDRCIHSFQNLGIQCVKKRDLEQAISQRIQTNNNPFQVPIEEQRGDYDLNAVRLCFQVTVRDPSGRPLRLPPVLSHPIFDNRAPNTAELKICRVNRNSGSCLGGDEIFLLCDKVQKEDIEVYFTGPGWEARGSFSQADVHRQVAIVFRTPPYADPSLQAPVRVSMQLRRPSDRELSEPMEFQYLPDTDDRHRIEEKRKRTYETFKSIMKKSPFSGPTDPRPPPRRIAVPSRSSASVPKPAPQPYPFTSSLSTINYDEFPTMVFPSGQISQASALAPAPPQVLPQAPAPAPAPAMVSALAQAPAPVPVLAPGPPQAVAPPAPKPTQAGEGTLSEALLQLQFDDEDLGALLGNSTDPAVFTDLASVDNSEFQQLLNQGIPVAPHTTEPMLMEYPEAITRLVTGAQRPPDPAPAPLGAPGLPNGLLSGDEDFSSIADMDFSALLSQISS
# Sequence of Mothers against decapentaplegic homolog 3 (Homo sapiens) (P84022 2-425 limits assumed): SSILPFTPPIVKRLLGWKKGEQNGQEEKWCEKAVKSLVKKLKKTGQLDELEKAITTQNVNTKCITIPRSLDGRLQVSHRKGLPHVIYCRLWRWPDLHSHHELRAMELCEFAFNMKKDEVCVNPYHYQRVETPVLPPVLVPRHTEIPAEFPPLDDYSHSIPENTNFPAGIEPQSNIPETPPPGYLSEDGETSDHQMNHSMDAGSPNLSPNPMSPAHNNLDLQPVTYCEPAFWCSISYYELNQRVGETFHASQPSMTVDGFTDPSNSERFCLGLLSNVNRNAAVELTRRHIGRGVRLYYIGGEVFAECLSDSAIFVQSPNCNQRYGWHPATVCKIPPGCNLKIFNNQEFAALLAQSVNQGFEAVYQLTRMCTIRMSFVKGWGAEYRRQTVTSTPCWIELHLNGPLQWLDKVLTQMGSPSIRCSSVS
# Sequence of Mothers against decapentaplegic homolog 2 (Homo sapiens) (Q15796 whole entry): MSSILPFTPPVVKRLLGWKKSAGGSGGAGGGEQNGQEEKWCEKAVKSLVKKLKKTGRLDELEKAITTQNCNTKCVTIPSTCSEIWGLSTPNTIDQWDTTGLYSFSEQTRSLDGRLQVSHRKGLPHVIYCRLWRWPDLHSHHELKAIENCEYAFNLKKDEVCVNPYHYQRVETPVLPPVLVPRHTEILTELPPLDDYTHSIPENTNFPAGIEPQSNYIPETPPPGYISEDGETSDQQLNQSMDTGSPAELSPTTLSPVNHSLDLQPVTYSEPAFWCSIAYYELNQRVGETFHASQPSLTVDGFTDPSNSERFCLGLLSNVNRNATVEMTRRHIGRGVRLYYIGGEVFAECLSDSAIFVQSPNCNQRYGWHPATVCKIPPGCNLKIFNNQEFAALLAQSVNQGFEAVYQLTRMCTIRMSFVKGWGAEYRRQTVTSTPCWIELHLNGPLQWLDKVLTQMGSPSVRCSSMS
compound,measurement,setting,value
COC(=O)CCC[C@@H]1[C@H]2CCCN3CCC[C@H](CN1C(=O)C(C)c1ccc(-c4ccccc4)c(F)c1)[C@@H]23 (some centres not stated),inhibition,Mus musculus [1],inactive
same,fold change (FC),RAW264.7 [2],0.71
same,inhibition,Mus musculus [3],Active
same,Activity,Mus musculus [4],Active
same,inhibition,LX-2 [5],Dose-dependent-effect
same,Activity,Mus musculus [6],Active
same,Activity,Mus musculus [7],Active
same,inhibition,LX-2 [8],Dose-dependent-effect
same,inhibition,[9],Dose-dependent-effect
same,Activity,Mus musculus [10],Active
same,inhibition,RAW264.7 [11],Active
same,inhibition,[12],Dose-dependent-effect
same,inhibition,RAW264.7 [13],Active
same,Activity,Mus musculus [14],Active
same,Activity,Mus musculus [15],Active
same,inhibition,Mus musculus [16],inactive
same,Activity,Mus musculus [17],Active
same,Activity,Mus musculus [18],Active; Dramatically Decreased The Collagen Deposition
same,Activity,Mus musculus [19],Active
same,inhibition,Mus musculus [20],Active
same,inhibition,[21],Dose-dependent-effect
same,inhibition,RAW264.7 [22],Active
same,inhibition,RAW264.7 [23],Active
same,Activity,Mus musculus [24],Active
same,Activity,Mus musculus [25],Active
same,inhibition,Mus musculus [26],Active
same,inhibition,Mus musculus [27],Active
